Like-named read-outs stand apart in the source and are kept apart here.
Columns and labels:
[1] = tested on: thyroid hormone receptor (endogenous TRα and TRβ); experiment: cells; parameters: species or system GH3-TRE-Luc (rat pituitary); GH3-TRE-Luc luciferase reporter transactivation, agonist mode, qHTS; RXR ligands can also activate indirectly; settings: 24 h, read-out: TR_LUC_GH3_Agonist_AC50 (uM)
[2] = tested on: thyroid hormone receptor (endogenous TRα and TRβ); experiment: cells; parameters: species or system GH3-TRE-Luc (rat pituitary); GH3-TRE-Luc luciferase reporter, antagonist mode against 1 nM T3, loss of signal, qHTS; settings: 24 h; antagonist mode, 1 nM T3; no GH3 cytotoxicity hit; read-out: Average AC50 (uM) GH3-TRE-Antag
[3] = in vitro; parameters: species or system GH3-TRE-Luc (rat pituitary); CellTiter-Fluor viability run in parallel with antagonist mode (1 nM T3), loss of viability; settings: rat, gh3-tre-luc cells, AC50 (uM) modified / 1000, Tox21_110001=Tox21_113033, viability, 1 nM T3 present
[4] = tested on: estrogen receptor; parameters: method as in Judson et al. 2015; settings: model values ≥0.1 define actives; ref Judson et al. 2015; cited from earlier work
[5] = tested on: thyroid hormone receptor (TR); experiment: Classification of TR actives across characterization assays (TR-Ag / RXR-Ag; TR model binary); parameters: key to Categorization Code: FP, false positive; settings: for TR_Model_Binary_Agonist / TR_Model_Binary_Antagonist: candidate chemicals in Tables 2 and 3 define actives; for Categorization Code: TR agonist characterization
Summary of the method: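 Pharmaceuticals excluded; actives called from GH3-TRE qHTS (agonist, antagonist, viability) on 8,305 chemicals. Confirmation of 84 selected chemicals used GH3-TRE-Ag, mammalian one-hybrid TRβ and RXRα UAS-bla HEK 293T specificity screens, parental HEK293T viability, and two TR:coactivator recruitment assays.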

[6] = biological target: T1, human TRβ ligand-binding domain (Homo sapiens, UniProt P10828); experiment: TRb-bla antagonist mammalian one-hybrid beta-lactamase assay (TOX21_TRB_BLA_Antagonist_Followup, aeid 2238-2240); type: cell-based; settings: for Emax: read-out: resp_max (maximum response value)
T1 sequence (P10828 217-461 limits assumed): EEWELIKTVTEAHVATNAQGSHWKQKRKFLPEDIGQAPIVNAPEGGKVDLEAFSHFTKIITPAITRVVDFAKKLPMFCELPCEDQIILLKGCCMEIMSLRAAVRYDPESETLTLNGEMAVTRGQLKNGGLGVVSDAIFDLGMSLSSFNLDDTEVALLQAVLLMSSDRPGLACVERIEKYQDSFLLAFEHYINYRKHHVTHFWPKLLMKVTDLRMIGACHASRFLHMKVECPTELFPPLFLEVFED

[7] = in vitro; settings: rat, gh3-tre-luc cells, AC50 (uM) modified / 1000
[8] = tested on: thyroid hormone receptor (endogenous TRα and TRβ); experiment: GH3-TRE-Antag-Followup confirmation (TOX21_TR_LUC_GH3_Antagonist_Followup, aeid 2227); type: cell-based, rat; settings: Table S3, aeid 2227
[9] = biological target: T2, human RXRα (Homo sapiens, UniProt P19793); experiment: RXRa-bla-Ag mammalian one-hybrid beta-lactamase assay (TOX21_TR_RXR_BLA_Agonist_Followup_ratio, aeid 2253); type: cell-based; settings: for tr-followup-rxr-bla-agonist-1 hitc: hit call from tcpl; for Emax: read-out: EMax (% of Control) tr-followup-rxr-bla-agonist-1
T2 construct: host or cells: GeneBLAzer UAS-bla HEK 293T
T2 sequence (P19793 227-458 limits assumed): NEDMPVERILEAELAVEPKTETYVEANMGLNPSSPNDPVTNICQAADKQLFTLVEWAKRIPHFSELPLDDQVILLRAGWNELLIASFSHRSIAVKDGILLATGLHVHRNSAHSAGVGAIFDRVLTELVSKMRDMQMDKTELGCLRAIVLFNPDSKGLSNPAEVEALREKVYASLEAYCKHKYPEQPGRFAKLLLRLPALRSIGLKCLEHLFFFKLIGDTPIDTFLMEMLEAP

[10] = tested on: thyroid hormone receptor (endogenous TRα and TRβ); experiment: GH3-TRE-Ag-Followup confirmation (TOX21_TR_LUC_GH3_Agonist_Followup, aeid 2226); type: cell-based, rat; settings: for GH3-TRE-Ag-Followup hitc: hit call from tcpl; for AC50: read-out: GH3-TRE-Ag-Followup AC50
[11] = tested on: GH3-TRE-Luc cell line; experiment: GH3-TRE-Via cell viability, CellTiter-Fluor (TOX21_TR_LUC_GH3_Antagonist_viability, aeid 805)
[12] = biological target: T3, TRα ligand-binding domain (Homo sapiens, UniProt P10827); experiment: TRa-coa LanthaScreen TR-FRET coactivator (SRC-2 peptide) recruitment, agonist (TOX21_TRA_COA_Agonist_Followup_ratio, aeid 2230); type: biochemical; settings: for TRa-coa hitc: hit call from tcpl; for Emax: read-out: EMax (% of Control) tra-coa-agonist-followup-1
T3 construct: the receptor LBDs expressed as glutathione S-transferase (GST) fusion proteins; purchased
T3 sequence (P10827 163-410 isoform P10827-2 limits assumed, other chains not shown): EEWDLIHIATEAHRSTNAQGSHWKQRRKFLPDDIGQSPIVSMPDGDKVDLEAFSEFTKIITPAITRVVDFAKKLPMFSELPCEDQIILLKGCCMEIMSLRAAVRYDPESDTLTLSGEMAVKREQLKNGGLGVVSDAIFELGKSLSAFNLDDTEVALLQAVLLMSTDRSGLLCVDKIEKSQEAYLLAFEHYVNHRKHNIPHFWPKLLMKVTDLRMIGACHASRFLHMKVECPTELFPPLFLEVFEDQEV

[13] = biological target: T1, human TRβ ligand-binding domain; experiment: TRb-coa LanthaScreen TR-FRET coactivator (SRC-2 peptide) recruitment, agonist (TOX21_TRB_COA_Agonist_Followup_ratio, aeid 2244); type: biochemical; parameters: host or cells: GeneBLAzer UAS-bla HEK 293T; settings: for TRb-coa hitc: hit call from tcpl; for Emax: read-out: EMax (% of Control) trb-coa-agonist-followup-1
[14] = tested on: thyroid hormone receptor (endogenous TRα and TRβ); experiment: GH3-TRE-Ag primary qHTS, luciferase reporter, agonist mode (TOX21_TR_LUC_GH3_Agonist, aeid 803); type: cell-based, rat; settings: for GH3-TRE-Ag AC50 hitc: hit call from tcpl; for AC50: read-out: GH3-TRE-Ag AC50
[15] = biological target: T1, human TRβ ligand-binding domain; experiment: TRb-bla agonist mammalian one-hybrid beta-lactamase assay (TOX21_TRB_BLA_Agonist_Followup_ratio, aeid 2236); type: cell-based; parameters: host or cells: GeneBLAzer UAS-bla HEK 293T; settings: for TRb-bla hitc: hit call from tcpl
[16] = tested on: GH3-TRE-Luc cell line; settings: read-out: AC50 (uM) modified / 1000; Tox21_110001=Tox21_303049; viability, 1 nM T3 present, 24 h
[17] = biological target: luciferase (Photinus pyralis, UniProt P08659); experiment: Luciferase inhibition
luciferase, sequence (P08659 whole entry, species assumed, the tested form may be a part): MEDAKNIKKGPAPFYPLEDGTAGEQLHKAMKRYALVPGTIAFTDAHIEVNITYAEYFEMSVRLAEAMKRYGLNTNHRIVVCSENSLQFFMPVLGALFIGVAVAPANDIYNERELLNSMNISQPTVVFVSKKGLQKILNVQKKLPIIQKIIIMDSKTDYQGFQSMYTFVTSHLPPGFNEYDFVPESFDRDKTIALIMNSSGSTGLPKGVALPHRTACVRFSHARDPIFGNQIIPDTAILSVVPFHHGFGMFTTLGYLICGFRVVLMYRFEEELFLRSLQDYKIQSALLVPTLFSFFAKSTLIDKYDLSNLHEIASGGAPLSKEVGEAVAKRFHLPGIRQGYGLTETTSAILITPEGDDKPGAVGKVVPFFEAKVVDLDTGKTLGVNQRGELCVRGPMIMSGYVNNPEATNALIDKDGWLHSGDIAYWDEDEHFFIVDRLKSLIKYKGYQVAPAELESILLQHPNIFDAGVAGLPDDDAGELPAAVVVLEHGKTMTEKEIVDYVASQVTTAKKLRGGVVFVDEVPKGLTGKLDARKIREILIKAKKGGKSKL

[18] = biological target: human retinoid X receptor alpha (RXRα) ligand-binding domain of the GeneBLAzer RXRα-UAS-bla HEK 293T one-hybrid assay (human)
[19] = tested on: GH3-TRE-Luc cell line
[20] = tested on: Tox21 cell viability assays (different cell types); experiment: Global cytotoxicity: eighteen Tox21 cell viability assays; type: cell-based
[21] = as above; type: cell-based

In the case of `C[C@]12CC[C@@H]3c4ccc(OC(=O)N(CCCl)CCCl)cc4CC[C@H]3[C@@H]1CC[C@@H]2OP(=O)(O)O` [Estramustine phosphate], the AC50 [1] was over 50 µM, the AC50 [2] was 42.9 µM and the CC50 at 24 h [3] was over 50 µM.
For (-)-alpha-Pinene, the ER_Model_AUC_Agonist [4] is given as 0, the ER_Model_AUC_Antagonist [4] is given as 0 and the TR_Model_Binary_Agonist [5] is given as 0. The TR_Model_Binary_Antagonist [5] was 0.
For `O=C(O)c1cccnc1Nc1cccc(C(F)(F)F)c1` [Niflumic acid], the hitc ([6]; Table S3, aeid 2238, ch1) was 0, the Emax ([6]; Table S3, aeid 2238, ch1) was 36.4% and the hitc ([6]; Table S3, aeid 2239, ch2) was 0. For the same compound, the Emax ([6]; Table S3, aeid 2239, ch2) was 24.1%, the hitc ([6]; Table S3, aeid 2240, ratio) was 0 and the Emax ([6]; Table S3, aeid 2240, ratio) was 46.2%. For the same compound, the CC50 at 24 h [7] was over 50 µM, the “flag (text output for the level 6 method)” value [8] was “Borderline inactive” and the hitc [8] was 0. For the same compound, the “modl_tp (top asymptote for the winning model)” value [8] was 11.5978 percent_activity and the “resp_max (maximum response value)” value [8] was 41.1677 percent_activity.
`CN(C)c1ccc(N=O)cc1` [N,N-dimethyl-4-nitrosoaniline] gave an AC50 [9] of over 92 µM, a tr-followup-rxr-bla-agonist-1 hitc [9] of 0 and an Emax [9] of 1.8%. For the same compound, the “EMax (% of Control) gh3-tre-agonist-followup-1_agonist” value [10] was 47.7 % of Control, the GH3-TRE-Ag-Followup hitc [10] was 1 and the AC50 [10] was 9.01 µM. The AC50 ([11]; Rattus norvegicus, read-out: TR_LUC_GH3_Antagonist_viability AC50 (uM)) was 6.9 µM, the TR_LUC_GH3_Antagonist_viability hitc ([11]; hit call from tcpl) was 1 and the AC50 ([12]; agonist, read-out: TRa-coa AC50) was over 92 µM. The TRa-coa hitc ([12]; agonist) was 0, the Emax [12] was -0.217% and the CC50 at 24 h [7] was 5.44 µM. For the same compound, the AC50 ([13]; agonist, read-out: TRb-coa AC50) was over 92 µM, the TRb-coa hitc ([13]; agonist) was 0 and the Emax [13] was -0.165%. For the same compound, the “EMax (% of Control) gh3-tre-agonist” value [14] was 31.0 % of Control, the “GH3-TRE-Ag AC50 hitc” value [14] was 1 and the AC50 [14] was 12.3 µM. For the same compound, the AC50 ([15]; agonist, read-out: TRb-bla AC50) was over 92 µM, the TRb-bla hitc ([15]; agonist) was 0 and the Emax ([15]; read-out: EMax (% of Control) trb-bla-agonist-followup-1) was 8.4%. For the same compound, the “Categorization Code” value [5] was “FP”, the CC50 [16] was 8.37 µM and the “luciferase inhibition” value [17] was “luciferase inhibitor”.
Compound Sincalide (peptide) has an RXRa-bla-Ag AC50 (β-lactamase reporter gene, RXRα-UAS-bla HEK 293T mammalian one-hybrid assay, agonist mode) [18] of 10.5 µM.
`CSCC[C@H](NC(=O)[C@H](Cc1ccc(OS(=O)(=O)O)cc1)NC(=O)[C@@H](N)CC(=O)O)C(=O)NCC(=O)N[C@@H](Cc1c[nH]c2ccccc12)C(=O)N[C@@H](CCSC)C(=O)N[C@@H](CC(=O)O)C(=O)N[C@@H](Cc1ccccc1)C(N)=O` [Sincalide, reference compound] showed an AC50 ([9]; HEK 293T one-hybrid, agonist mode, inactive set to 1,000, read-out: RXRa-bla-Ag AC50) of 10.5 µM, a tr-followup-rxr-bla-agonist-1 hitc [9] of 1 and an Emax [9] of 36.1%. The TR_LUC_GH3_Antagonist_viability hitc [19] was 0, the “GLOBAL CYTOTOXICITY cytotox.median” value [20] was over 92 and the “GLOBAL CYTOTOXICITY cytotox.number_Active” value [20] was 0. The AC50 [21] was over 92 µM, the “EMax (% of Control) gh3-tre-agonist-followup-1_agonist” value [10] was 19.9 % of Control and the AC50 ([10]; confirmation, agonist mode) was 8.59 µM. For the same compound, the GH3-TRE-Ag-Followup hitc [10] was 0, the AC50 ([12]; cell-free coactivator recruitment, read-out: TRa-coa-Ag AC50) was over 92 µM and the TRa-coa hitc ([12]; agonist) was 0. The Emax [12] was -0.4%, the AC50 ([13]; cell-free coactivator recruitment, read-out: TRb-coa-Ag AC50) was over 92 µM and the TRb-coa hitc ([13]; agonist) was 0. For the same compound, the Emax [13] was -0.125%, the AC50 was over 92 µM and the “EMax (% of Control) gh3-tre-agonist” value [14] was 80.1 % of Control. The “GH3-TRE-Ag AC50 hitc” value [14] was 1, the AC50 ([14]; primary qHTS, agonist mode, 24 h, top concentration 92 μM) was 12.4 µM and the AC50 ([15]; HEK 293T one-hybrid, agonist mode, read-out: TRb-bla-Ag AC50) was over 92 µM. For the same compound, the TRb-bla hitc ([15]; agonist) was 0, the “Categorization Code” value [5] was “RXR-Ag” and the Classification ([5]; TR-Ag = TR agonist, RXR-Ag = RXR agonist) was “RXR-Ag”.
For `C=C1CCC2CC1C2(C)C` (single isomer, unassigned; (-)) [(-)-beta-Pinene], the ER_Model_AUC_Agonist [4] is listed as 0, the ER_Model_AUC_Antagonist [4] is listed as 0 and the TR_Model_Binary_Agonist [5] is listed as 0. The TR_Model_Binary_Antagonist [5] was 0.

From publication PMC6792352, “Limited Chemical Structural Diversity Found to Modulate Thyroid Hormone Receptor in the Tox21 Chemical Library” (Environmental Health Perspectives, 2019)
